Test results: patent US20100267561A1, “HERBICIDAL PYRIDAZINONE DERIVATIVES” (priority 2007, published 2010)

Assays:
Assay type in all cases: in vivo
[1] = test system: velvetleaf (Abutilon theophrasti); assay: Test A pre-/postemergence plant response
Procedure, shortened: (§1)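 Greenhouse pot test: loam–sand soil; pre- and postemergence sprays applied same day; post plants 2–10 cm, 1–2 leaves. Readout ~10 d, visual % injury vs untreated (0 = none, 100 = complete control).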

[2] = test system: barnyardgrass (Echinochloa crus-galli); assay: Test A pre-/postemergence plant response
Procedure, shortened: as §1

[3] = test system: morningglory (Ipomoea coccinea); assay: Test A pre-/postemergence plant response
Procedure, shortened: as §1

corn (Zea mays) = assay: Test A pre-/postemergence plant response
Procedure, shortened: as §1

[4] = test system: large crabgrass (Digitaria sanguinalis); assay: Test A pre-/postemergence plant response
Procedure, shortened: as §1

[5] = test system: pigweed (Amaranthus retroflexus); assay: Test A pre-/postemergence plant response
Procedure, shortened: as §1

[6] = test system: giant foxtail (Setaria faberi); assay: Test A pre-/postemergence plant response
Procedure, shortened: as §1

[7] = test system: wheat (Triticum aestivum); assay: Test A pre-/postemergence plant response
Procedure, shortened: as §1

[8] = test system: johnsongrass (Sorghum halepense); assay: Test B pre-/postemergence plant response
Procedure, shortened: (§2)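 Visual scoring from 0 (no effect) to 100 (complete control) against untreated controls was done 13 to 15 days after greenhouse treatment. Chemicals were formulated in a surfactant-containing non-phytotoxic solvent and applied to soil preemergence or to 1- to 4-leaf (2-18 cm) plants postemergence.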

[9] = test system: green foxtail (Setaria viridis); assay: Test B pre-/postemergence plant response
Procedure, shortened: as §2

[10] = test system: wheat (Triticum aestivum); assay: Test B pre-/postemergence plant response
Procedure, shortened: as §2

[11] = Postemergence, 31 g ai/ha, 0 to 100 scale (0 no effect, 100 complete control)
[12] = Postemergence, 125 g ai/ha, 0 to 100 scale, 0 no effect, 100 complete control
[13] = Preemergence, 31 g ai/ha, 0 to 100 scale, 0 is no effect, 100 is complete control
[14] = Preemergence, 125 g ai/ha, 0 to 100 scale (0 no effect, 100 complete control)
[15] = Preemergence, 31 g ai/ha, scale 0 to 100 (0 no effect, 100 complete control)
[16] = Preemergence, 62 g ai/ha, 0 to 100 scale, 0 no effect, 100 complete control
[17] = Preemergence, 8 g ai/ha, scale 0 to 100
[18] = Preemergence, 16 g ai/ha, scale 0 to 100
[19] = 8 g ai/ha, postemergence, 0-100 scale
[20] = 16 g ai/ha, postemergence, 0-100 scale
[21] = Postemergence, 31 g ai/ha, scale 0 to 100
[22] = Postemergence, 62 g ai/ha, scale 0 to 100, 0 no effect, 100 complete control
[23] = Postemergence, 16 g ai/ha, scale 0 to 100
[24] = Postemergence, 500 g ai/ha, 0 to 100 scale, 0 no effect, 100 complete control
[25] = Preemergence, 500 g ai/ha, 0 to 100 scale (0 no effect, 100 complete control)
[26] = Postemergence, 31 g ai/ha, scale 0 to 100, 0 no effect, 100 complete control
[27] = Postemergence, 62 g ai/ha, scale 0 to 100
[28] = Preemergence, 16 g ai/ha, scale 0 to 100 (0 no effect, 100 complete control)
[29] = Preemergence, 31 g ai/ha, 0 to 100 scale, 0 no effect, 100 complete control
[30] = Preemergence, 62 g ai/ha, scale 0 to 100

C#CCOC(=O)Oc1cnn(C)c(=O)c1-n1nc(-c2ccc(Cl)cc2)cc1C [Compound 58]
Plant response rating, Velvetleaf [1, 11]: 0 | Plant response rating, Velvetleaf [1, 12]: 0 | Plant response rating, Velvetleaf [1, 13]: 0 | Plant response rating, Velvetleaf [1, 14]: 0 | Plant response rating, Barnyardgrass [2, 11]: 0 | Plant response rating, Barnyardgrass [2, 12]: 80 | Plant response rating, Barnyardgrass [2, 13]: 50 | Plant response rating, Barnyardgrass [2, 14]: 100 | Plant response rating, Morningglory [3, 11]: 0 | Plant response rating, Morningglory [3, 12]: 0 | Plant response rating, Morningglory [3, 13]: 0 | Plant response rating, Morningglory [3, 14]: 0 | Plant response rating, Corn (corn (Zea mays); [11]): 0 | Plant response rating, Corn (corn (Zea mays); [12]): 60 | Plant response rating, Corn (corn (Zea mays); [13]): 0 | Plant response rating, Corn (corn (Zea mays); [14]): 20 | Plant response rating, Crabgrass, Large [4, 11]: 0 | Plant response rating, Crabgrass, Large [4, 12]: 70 | Plant response rating, Crabgrass, Large [4, 13]: 60 | Plant response rating, Crabgrass, Large [4, 14]: 90 | Plant response rating, Pigweed [5, 11]: 0 | Plant response rating, Pigweed [5, 12]: 0 | Plant response rating, Pigweed [5, 13]: 0 | Plant response rating, Pigweed [5, 14]: 0 | Plant response rating, Foxtail, Giant [6, 11]: 20 | Plant response rating, Foxtail, Giant [6, 12]: 90 | Plant response rating, Foxtail, Giant [6, 13]: 90 | Plant response rating, Foxtail, Giant [6, 14]: 100 | Plant response rating, Wheat [7, 11]: 0 | Plant response rating, Wheat [7, 12]: 60 | Plant response rating, Wheat [7, 13]: 20 | Plant response rating, Wheat [7, 14]: 70 | Plant response rating, Johnsongrass [8, 15]: 40 | Plant response rating, Johnsongrass [8, 16]: 60 | Johnsongrass plant response rating [8, 17]: 0 | Johnsongrass plant response rating [8, 18]: 0 | Plant response rating, Foxtail, Green [9, 15]: 100 | Plant response rating, Foxtail, Green [9, 16]: 100 | Foxtail, Green plant response rating [9, 17]: 100 | Foxtail, Green plant response rating [9, 18]: 100 | Plant response rating, Wheat [10, 15]: 40 | Plant response rating, Wheat [10, 16]: 80 | Wheat plant response rating [10, 18]: 0

CCc1cc(-c2ccc(Br)cc2)nn1-c1c(O)cnn(C)c1=O [Compound 61]
Plant response rating, Velvetleaf [1, 11]: 0 | Plant response rating, Velvetleaf [1, 12]: 0 | Plant response rating, Velvetleaf [1, 13]: 0 | Plant response rating, Velvetleaf [1, 14]: 0 | Plant response rating, Barnyardgrass [2, 11]: 100 | Plant response rating, Barnyardgrass [2, 12]: 100 | Plant response rating, Barnyardgrass [2, 13]: 90 | Plant response rating, Barnyardgrass [2, 14]: 100 | Plant response rating, Morningglory [3, 11]: 0 | Plant response rating, Morningglory [3, 12]: 0 | Plant response rating, Morningglory [3, 13]: 0 | Plant response rating, Morningglory [3, 14]: 0 | Plant response rating, Corn (corn (Zea mays); [11]): 100 | Plant response rating, Corn (corn (Zea mays); [12]): 100 | Plant response rating, Corn (corn (Zea mays); [13]): 70 | Plant response rating, Corn (corn (Zea mays); [14]): 90 | Plant response rating, Crabgrass, Large [4, 11]: 100 | Plant response rating, Crabgrass, Large [4, 12]: 100 | Plant response rating, Crabgrass, Large [4, 13]: 80 | Plant response rating, Crabgrass, Large [4, 14]: 100 | Plant response rating, Pigweed [5, 11]: 0 | Plant response rating, Pigweed [5, 12]: 0 | Plant response rating, Pigweed [5, 13]: 0 | Plant response rating, Pigweed [5, 14]: 0 | Plant response rating, Foxtail, Giant [6, 11]: 100 | Plant response rating, Foxtail, Giant [6, 12]: 100 | Plant response rating, Foxtail, Giant [6, 13]: 100 | Plant response rating, Foxtail, Giant [6, 14]: 100 | Plant response rating, Wheat [7, 11]: 80 | Plant response rating, Wheat [7, 12]: 90 | Plant response rating, Wheat [7, 13]: 70 | Plant response rating, Wheat [7, 14]: 90 | Johnsongrass plant response rating [8, 19]: 65 | Johnsongrass plant response rating [8, 20]: 100 | Plant response rating, Johnsongrass [8, 21]: 100 | Plant response rating, Johnsongrass [8, 22]: 100 | Plant response rating, Johnsongrass [8, 15]: 100 | Plant response rating, Johnsongrass [8, 16]: 100 | Johnsongrass plant response rating [8, 17]: 90 | Johnsongrass plant response rating [8, 18]: 95 | Foxtail, Green plant response rating [9, 19]: 95 | Plant response rating, Foxtail, Green [9, 23]: 100 | Plant response rating, Foxtail, Green [9, 21]: 100 | Plant response rating, Foxtail, Green [9, 22]: 100 | Plant response rating, Foxtail, Green [9, 15]: 100 | Plant response rating, Foxtail, Green [9, 16]: 100 | Foxtail, Green plant response rating [9, 17]: 100 | Foxtail, Green plant response rating [9, 18]: 100 | Wheat plant response rating [10, 19]: 90 | Wheat plant response rating [10, 20]: 95 | Plant response rating, Wheat [10, 21]: 98 | Plant response rating, Wheat [10, 22]: 100 | Plant response rating, Wheat [10, 15]: 90 | Plant response rating, Wheat [10, 16]: 95 | Wheat plant response rating [10, 18]: 30

CCc1cc(-c2ccc(Cl)c(Cl)c2)nn1-c1c(O)cnn(C)c1=O [Compound 20]
Plant response rating, Velvetleaf [1, 12]: 0 | Plant response rating, Velvetleaf [1, 24]: 0 | Plant response rating, Velvetleaf [1, 14]: 0 | Plant response rating, Velvetleaf [1, 25]: 0 | Plant response rating, Barnyardgrass [2, 12]: 80 | Plant response rating, Barnyardgrass [2, 24]: 100 | Plant response rating, Barnyardgrass [2, 14]: 90 | Plant response rating, Barnyardgrass [2, 25]: 100 | Plant response rating, Morningglory [3, 12]: 0 | Plant response rating, Morningglory [3, 24]: 0 | Plant response rating, Morningglory [3, 14]: 0 | Plant response rating, Morningglory [3, 25]: 0 | Plant response rating, Corn (corn (Zea mays); [12]): 70 | Plant response rating, Corn (corn (Zea mays); [24]): 90 | Plant response rating, Corn (corn (Zea mays); [14]): 60 | Plant response rating, Corn (corn (Zea mays); [25]): 90 | Plant response rating, Crabgrass, Large [4, 12]: 80 | Plant response rating, Crabgrass, Large [4, 24]: 100 | Plant response rating, Crabgrass, Large [4, 14]: 90 | Plant response rating, Crabgrass, Large [4, 25]: 100 | Plant response rating, Pigweed [5, 12]: 0 | Plant response rating, Pigweed [5, 24]: 0 | Plant response rating, Pigweed [5, 14]: 0 | Plant response rating, Pigweed [5, 25]: 0 | Plant response rating, Foxtail, Giant [6, 12]: 90 | Plant response rating, Foxtail, Giant [6, 24]: 100 | Plant response rating, Foxtail, Giant [6, 14]: 90 | Plant response rating, Foxtail, Giant [6, 25]: 100 | Plant response rating, Wheat [7, 12]: 50 | Plant response rating, Wheat [7, 24]: 70 | Plant response rating, Wheat [7, 14]: 60 | Plant response rating, Wheat [7, 25]: 80 | Johnsongrass plant response rating [8, 19]: 30 | Plant response rating, Johnsongrass [8, 23]: 75 | Plant response rating, Johnsongrass [8, 26]: 100 | Plant response rating, Johnsongrass [8, 27]: 100 | Plant response rating, Johnsongrass [8, 28]: 50 | Plant response rating, Johnsongrass [8, 29]: 75 | Plant response rating, Johnsongrass [8, 30]: 95 | Johnsongrass plant response rating [8, 17]: 0 | Foxtail, Green plant response rating [9, 19]: 20 | Plant response rating, Foxtail, Green [9, 23]: 60 | Plant response rating, Foxtail, Green [9, 26]: 85 | Plant response rating, Foxtail, Green [9, 27]: 95 | Plant response rating, Foxtail, Green [9, 28]: 95 | Plant response rating, Foxtail, Green [9, 29]: 100 | Plant response rating, Foxtail, Green [9, 30]: 100 | Foxtail, Green plant response rating [9, 17]: 20 | Wheat plant response rating [10, 19]: 0 | Plant response rating, Wheat [10, 23]: 20 | Plant response rating, Wheat [10, 26]: 20 | Plant response rating, Wheat [10, 27]: 60 | Plant response rating, Wheat [10, 28]: 0 | Plant response rating, Wheat [10, 29]: 0 | Plant response rating, Wheat [10, 30]: 0 | Wheat plant response rating [10, 17]: 0
